Test results: patent publication US4157347A, “N-cyano isothioureas” (Bristol-Myers Company, priority 1978, dated 1979)
“Also recorded” adds a separate entry of the source. Like-named read-outs stand apart in the source and are kept apart here.

What was measured:
histamine H2-receptors = target: T1, histamine H2-receptors (Cavia porcellus, UniProt P47747); assay: Histamine H2-receptor antagonism, isolated guinea pig right atria assay; type: cell-based; conditions: for Histamine ED50 With 95% Confidence Limits: histamine ED50 in presence of test compound 1 × 10^-5 M, 30 min incubation; for Concentration-Response Curve Displacement Factor: test compound 1 × 10^-5 M
T1 construct: The spontaneously beating right atrium was dissected free from other tissues; from tissue; host or cells: isolated spontaneously beating right atrium of male Hartley guinea pigs
Method: Subsequent investigations by Hughes and Coret, Proc. Soc. […] Black et al., Agents and Actions, 3, 133 (1973) and Brimblecombe et al., Fed. […] The present comparative studies were carried out using a modification of the procedure reported by Reinhardt et al., Agents and Actions, 4, 217 (1974).
Male Hartley strain guinea pigs (350-450 gm.) were sacrificed by a blow on the head. The heart was excised and placed in a Petri dish of oxygenated (95% O2, 5% CO2) modified Krebs solution (g./liter: NaCl 6.6, KCl 0.35, MgSO4.7 H2 O 0.295, KH2 PO4 0.162, CaCl2 0.238, NaHCO3 2.1 and dextrose 2.09). The spontaneously beating right atrium was dissected free from other tissues and a silk thread (4-0) attached to each end. The atrium was suspended in a 20 ml. muscle chamber containing oxygenated modified Krebs solution maintained at 32° C. Atrial contractions were recorded isometrically by means of a Grass FT 0.03 force displacement transducer and recordings of contractile force and rate were made with a Beckman RP Dynograph.
A resting tension of 1 g. was applied to the atrium and it was allowed to equilibrate for 1 hour.
Concentration-response curve displacement factors were calculated as follows: [formula] The factor obtained for BL-5641 was then expressed as a ratio of the factor obtained for cimetidine. [formula]

gastric acid output = assay: Gastric antisecretory activity in the two hour pylorus ligated (Shay) rat; type: in vivo, rat (male Long Evans)
Excerpt: Determination of Gastric Antisecretory Activity in the Two Hour Pylorus Ligated (Shay) Rat
The pyloric ligation procedure in the rat was designed by Shay et al., Gastroenterology, 5,53 (1945) for the study of perforating gastric ulcers; however, as the method became known, it was also employed as a means of studying rat gastric secretion, Shay et al., Gastroenterology, 26, 906 (1954), Brodie, D. A., Am. J. Dig. Dis., 11, 231 (1966). A modification of this procedure is presently used to evaluate compounds for gastric antisecretory activity.
Male Long Evans rats, 280-300 gm., are used. The animals are placed in individual cages and fasted for 24 hours with free access to water. Under ether anesthesia, the stomach is reached through a midline incision, and a cotton-thread ligature is placed around the pylorus. After wound closure, ether administration is stopped and either BL-5641, cimetidine or vehicle are administered intraperitoneally in a volume of […]. BL-5641 and cimetidine are solubilized with one equivalent of HCl and brought to the proper volume with water. The animals are returned to their cages from which the water bottles have been removed and two hours later are sacrificed with ether. The stomach is removed and the two hour gastric collection is drained into a graduated test tube for volume determination. Titratable acidity is measured by titrating a one ml. sample to pH 7.0 with 0.02 N NaOH, using an Autoburet and an electrometric pH meter (Radiometer). Titratable acid output is calculated in microequivalents by multiplying the volume in milliliters by the acid concentration in milliequivalents per liter. The percent inhibition of acid output is calculated as follows [formula]

[1] = system: histamine-induced gastric acid output; assay: Gastric antisecretory activity in the gastric fistula dog (histamine-induced gastric acid output); type: in vivo, dog (beagle)
Method: Determination of Gastric Antisecretory Activity in the Gastric Fistula Dog
Thomas type [Thomas, J. E., Proc. Soc. exp. Biol. Med., 46, 260 (1941)] stainless steel cannulae are inserted into the stomachs of beagle dogs (10-12 kg.) just orad to the pyloric gland area near the greater curvature to provide a chronic gastric fistula. Animals are allowed to recover for at least two months before any testing is done. Dogs are fasted overnight (~18 hours) with water ad lib prior to each experiment. The dogs are placed in a sling and an eight inch inside needle catheter (C. R. Baird, Inc.) with a two inch 17 gauge needle is inserted into a leg vein for purposes of drug administration. Gastric secretions are collected every 15 minutes by gravity drainage from the opened cannula. […] A modification of the procedure described by Grossman and Konturek, Gastroenterology, 66, 517 (1974) was followed. […] Each 15 minute sample of gastric juice is measured to the nearest 0.5 ml. and titratable acidity against 0.02 N NaOH (endpoint pH 7.0) is measured with an Autoburet and pH meter (radiometer). The percent inhibition of acid output is calculated as described in the pylorus ligated rat procedure.

[2] = clinical, in words; cited from earlier work
H2 receptors = conditions: in words; cited from earlier work
peptic ulcer disease = conditions: clinical evaluation, in words; cited from earlier work
[3] = in words; cited from earlier work
[4] = 10 μMole/kg. ip, 2 h (BL-5641 2.76 mg/kg; cimetidine 2.5 mg/kg)
[5] = 20 μMole/kg. ip, 2 h (BL-5641 5.53 mg/kg; cimetidine 5 mg/kg)
[6] = 40 μMole/kg. ip, 2 h (BL-5641 11.1 mg/kg; cimetidine 10 mg/kg)
[7] = 0.75 μM/kg. iv, 15 min, dog 23553, N=1
[8] = 0.75 μM/kg. iv, 30 min, dog 23553, N=1
[9] = 0.75 μM/kg. iv, 45 min, dog 23553, N=1
[10] = 0.75 μM/kg. iv, 60 min, dog 23553, N=1
[11] = 0.75 μM/kg. iv, 75 min, dog 23553, N=1
[12] = 0.75 μM/kg. iv, 90 min, dog 23553, N=1
[13] = 0.75 μM/kg. iv, 105 min, dog 23553, N=1
[14] = 0.75 μM/kg. iv, 120 min, dog 23553, N=1
[15] = 1.5 μM/kg. iv, 15 min, dog 24895, N=1
[16] = 1.5 μM/kg. iv, 30 min, dog 24895, N=1
[17] = 1.5 μM/kg. iv, 45 min, dog 24895, N=1
[18] = 1.5 μM/kg. iv, 60 min, dog 24895, N=1
[19] = 1.5 μM/kg. iv, 75 min, dog 24895, N=1
[20] = 1.5 μM/kg. iv, 90 min, dog 24895, N=1
[21] = 1.5 μM/kg. iv, 105 min, dog 24895, N=1
[22] = 1.5 μM/kg. iv, 120 min, dog 24895, N=1
[23] = 3 μM/kg. iv, 15 min, dog 23606, N=1
[24] = 3 μM/kg. iv, 30 min, dog 23606, N=1
[25] = 3 μM/kg. iv, 45 min, dog 23606, N=1
[26] = 3 μM/kg. iv, 60 min, dog 23606, N=1
[27] = 3 μM/kg. iv, 75 min, dog 23606, N=1
[28] = 3 μM/kg. iv, 90 min, dog 23606, N=1
[29] = 3 μM/kg. iv, 105 min, dog 23606, N=1
[30] = 3 μM/kg. iv, 120 min, dog 23606, N=1
[31] = 6 μM/kg. iv, 15 min, dog 22619, N=1
[32] = 6 μM/kg. iv, 30 min, dog 22619, N=1
[33] = 6 μM/kg. iv, 45 min, dog 22619, N=1
[34] = 6 μM/kg. iv, 60 min, dog 22619, N=1
[35] = 6 μM/kg. iv, 75 min, dog 22619, N=1
[36] = 6 μM/kg. iv, 90 min, dog 22619, N=1
[37] = 6 μM/kg. iv, 105 min, dog 22619, N=1
[38] = 6 μM/kg. iv, 120 min, dog 22619, N=1
[39] = 12 μM/kg. iv, 15 min, dog 24136, N=1
[40] = 12 μM/kg. iv, 30 min, dog 24136, N=1
[41] = 12 μM/kg. iv, 45 min, dog 24136, N=1
[42] = 12 μM/kg. iv, 60 min, dog 24136, N=1
[43] = 12 μM/kg. iv, 75 min, dog 24136, N=1
[44] = 12 μM/kg. iv, 90 min, dog 24136, N=1
[45] = 12 μM/kg. iv, 105 min, dog 24136, N=1
[46] = 12 μM/kg. iv, 120 min, dog 24136, N=1

T1 sequence (P47747 whole entry): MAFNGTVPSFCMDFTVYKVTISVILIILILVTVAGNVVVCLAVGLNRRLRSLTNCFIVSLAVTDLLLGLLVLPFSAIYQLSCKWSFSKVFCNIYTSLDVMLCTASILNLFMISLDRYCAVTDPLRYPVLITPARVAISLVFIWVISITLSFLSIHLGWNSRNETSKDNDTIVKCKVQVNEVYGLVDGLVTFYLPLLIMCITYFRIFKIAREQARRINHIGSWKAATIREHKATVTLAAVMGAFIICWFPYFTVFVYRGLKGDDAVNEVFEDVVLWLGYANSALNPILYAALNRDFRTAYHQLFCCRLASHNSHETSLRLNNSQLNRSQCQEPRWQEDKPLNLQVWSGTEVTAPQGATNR

C#CCN=C(NC#N)NCCSCc1[nH]cnc1C [BL-5641, N-Cyano-N'-{2-[(4-methyl-5-imidazolyl)methylthio]ethyl}-N"-propargylguanidine]
Histamine ED50 With 95% Confidence Limits (histamine H2-receptors): 12.44 µg/mL | histamine H2-receptor antagonist potency vs cimetidine (histamine H2-receptors; isolated guinea pig atria, in words): more potent than cimetidine | Concentration-Response Curve Displacement Factor (histamine H2-receptors): 32.7 | % Inhibition of Acid Output (gastric acid output; [4]): 37% | % Inhibition of Acid Output (gastric acid output; [5]): 61% | % Inhibition of Acid Output (gastric acid output; [6]): 80% | ED50 (gastric acid output; Rattus norvegicus, ip, 2 h; read-out: ED50 (inhibition of acid output)): ~11 µmol/kg | potency in inhibition of gastric acid output vs cimetidine (gastric acid output; in words): at least as potent as cimetidine; also recorded: more potent than cimetidine | % Inhibition Acid Output [1, 7]: 51% | % Inhibition Acid Output [1, 8]: 38% | % Inhibition Acid Output [1, 9]: 28% | % Inhibition Acid Output [1, 10]: 28% | % Inhibition Acid Output [1, 11]: 31% | % Inhibition Acid Output [1, 12]: 43% | % Inhibition Acid Output [1, 13]: 42% | % Inhibition Acid Output [1, 14]: 46% | % Inhibition Acid Output [1, 15]: 82% | % Inhibition Acid Output [1, 16]: 72% | % Inhibition Acid Output [1, 17]: 53% | % Inhibition Acid Output [1, 18]: 49% | % Inhibition Acid Output [1, 19]: 33% | % Inhibition Acid Output [1, 20]: 7% | % Inhibition Acid Output [1, 21]: 0% | % Inhibition Acid Output [1, 22]: 0% | % Inhibition Acid Output [1, 23]: 60% | % Inhibition Acid Output [1, 24]: 59% | % Inhibition Acid Output [1, 25]: 36% | % Inhibition Acid Output [1, 26]: 34% | % Inhibition Acid Output [1, 27]: 32% | % Inhibition Acid Output [1, 28]: 42% | % Inhibition Acid Output [1, 29]: 24% | % Inhibition Acid Output [1, 30]: 0% | % Inhibition Acid Output [1, 31]: 82% | % Inhibition Acid Output [1, 32]: 99% | % Inhibition Acid Output [1, 33]: 99% | % Inhibition Acid Output [1, 34]: 95% | % Inhibition Acid Output [1, 35]: 78% | % Inhibition Acid Output [1, 36]: 76% | % Inhibition Acid Output [1, 37]: 52% | % Inhibition Acid Output [1, 38]: 53% | % Inhibition Acid Output [1, 39]: 66% | % Inhibition Acid Output [1, 40]: 99% | % Inhibition Acid Output [1, 41]: 99% | % Inhibition Acid Output [1, 42]: 99% | % Inhibition Acid Output [1, 43]: 99% | % Inhibition Acid Output [1, 44]: 93% | % Inhibition Acid Output [1, 45]: 91% | % Inhibition Acid Output [1, 46]: 73% | duration of activity vs cimetidine ([1]; equal (equimolar) doses iv, in words): of longer duration with BL-5641 than with cimetidine; also recorded: longer duration of activity than cimetidine at equal doses | degree of inhibition of gastric acid output vs cimetidine ([1]; equimolar doses iv, in words): consistently greater | inhibitor of gastric acid output, potency vs cimetidine ([1]; iv, in words): more potent and/or longer acting than cimetidine; also recorded: more potent than cimetidine | onset of effect on gastric acid output ([1]; iv, in words): immediate inhibitory effect on gastric acid output

CNC(=NC#N)NCCSCc1[nH]cnc1C [Cimetidine]
toxicity (agranulocytosis) [2]: without producing agranulocytosis | Activity Ratio (histamine H2-receptors): 1.0 | Histamine ED50 With 95% Confidence Limits (histamine H2-receptors): 1.39 µg/mL | Concentration-Response Curve Displacement Factor (histamine H2-receptors): 6.6 | H2 antagonist potency/effectiveness (H2 receptors): as effective an H2 antagonist as metiamide | therapeutic effect in peptic ulcer disease (peptic ulcer disease): effective therapeutic agent in the treatment of peptic ulcer disease | % Inhibition of Acid Output (gastric acid output; 5 μMole/kg. ip, 2 h (cimetidine 1.25 mg/kg)): 34% | % Inhibition of Acid Output (gastric acid output; [4]): 40% | % Inhibition of Acid Output (gastric acid output; [5]): 60% | % Inhibition of Acid Output (gastric acid output; [6]): 66% | ED50 (gastric acid output; Rattus norvegicus, ip, 2 h, read-out: ED50 (inhibition of acid output)): ~14 µmol/kg | % Inhibition Acid Output [1, 7]: 50% | % Inhibition Acid Output [1, 8]: 10% | % Inhibition Acid Output [1, 9]: 24% | % Inhibition Acid Output [1, 10]: 17% | % Inhibition Acid Output [1, 11]: 35% | % Inhibition Acid Output [1, 12]: 27% | % Inhibition Acid Output [1, 13]: 25% | % Inhibition Acid Output [1, 14]: 19% | % Inhibition Acid Output [1, 15]: 73% | % Inhibition Acid Output [1, 16]: 57% | % Inhibition Acid Output [1, 17]: 60% | % Inhibition Acid Output [1, 18]: 29% | % Inhibition Acid Output [1, 19]: 0% | % Inhibition Acid Output [1, 20]: 18% | % Inhibition Acid Output [1, 21]: 0% | % Inhibition Acid Output [1, 22]: 0% | % Inhibition Acid Output [1, 23]: 43% | % Inhibition Acid Output [1, 24]: 27% | % Inhibition Acid Output [1, 25]: 15% | % Inhibition Acid Output [1, 26]: 0% | % Inhibition Acid Output [1, 27]: 17% | % Inhibition Acid Output [1, 28]: 38% | % Inhibition Acid Output [1, 29]: 8% | % Inhibition Acid Output [1, 30]: 0% | % Inhibition Acid Output [1, 31]: 84% | % Inhibition Acid Output [1, 32]: 96% | % Inhibition Acid Output [1, 33]: 73% | % Inhibition Acid Output [1, 34]: 67% | % Inhibition Acid Output [1, 35]: 65% | % Inhibition Acid Output [1, 36]: 54% | % Inhibition Acid Output [1, 37]: 40% | % Inhibition Acid Output [1, 38]: 32% | % Inhibition Acid Output [1, 39]: 63% | % Inhibition Acid Output [1, 40]: 99% | % Inhibition Acid Output [1, 41]: 89% | % Inhibition Acid Output [1, 42]: 76% | % Inhibition Acid Output [1, 43]: 54% | % Inhibition Acid Output [1, 44]: 48% | % Inhibition Acid Output [1, 45]: 41% | % Inhibition Acid Output [1, 46]: 14% | onset of effect on gastric acid output ([1]; iv, in words): immediate inhibitory effect on gastric acid output | half-life [3]: relatively short
